Data set [1] has as its system NF-κB. In words: Firefly luciferase NF-κB reporter assay in TNF-α-stimulated HEK293 cells. The conditions noted are these: for inhibition of TNF-α-induced NF-κB activation (luciferase reporter), in words: 293 NF-κB luciferase reporter cells, 10 ng/ml TNF-α, compound 12909780 at 100 μM. Type of data set: cell-based. Here is the method: This model was used to screen a subset of the drug-like ZINC 8.0 database set (˜900,000 compounds) (Irwin et al., 2005). We were able to identify 161 hits that matched at least 6 features out of eight of the pharmacophore model. […] Two compounds termed NBDA-1 (Zinc-13) and NBDA-2 (Zinc-5), successfully passed these filters (See FIG. 4) and were purchased for biological testing. The compounds were then tested for ability to inhibit TNF-alpha-mediated induction of NF-κB activity in a 293 cells stably modified with a NF-κB luciferase reporter.
The activation of NF-κB was then quantitated by measuring the level of luciferase activity. […] Also, protein extracts were prepared from the same cells and the level of phospho-IkB determined, a marker of IKK activity.
To test if the small molecules identified by the in silico screen inhibit NF-κB activation, a HEK293 cell line stably expressing a luciferase reporter driven by a synthetic, NF-κB-dependent promoter was utilized. To induce NF-κB activation, cells were treated with 10 ng/ml of TNF-α and harvested three hours post-treatment for analysis of luciferase activity. […] To determine if compound 12909780 inhibited NF-κB in a dose dependent manner, concentrations were tested at 0, 6.25, 25, 50 and 100 μM.
HEK293 cells stably transfected with luciferase reporter plasmid driven by NF-κB were seeded in 96-well plate in triplicate and pretreated with DMSO or varying small molecules at indicated concentration for 30 min, followed by the stimulation of 10 ng/ml of TNFα for 3 hr. Cell were washed with PBS once and harvested in passive lysis buffer. Luciferase assay (Promega) was performed using a luminometer according to the manufacturer's instructions.
For orientation: In a reporter assay the amount or activity of a reporter protein is the signal.

The subject of the next data set is HEK293 cells. Nature of the data set: MTT cell viability assay. Type of data set: cell-based. The method, then: To identify NBD mimetics with higher biological activity than compound 12909780 or the NBD peptide, we next screened the ZINC 10.0 database (approximately 3.5 million compounds) in silico for structurally similar compounds (24).
Cell viability was calculated by normalizing values to untreated control.
On the technique in general: Tetrazolium dyes change colour on reduction, which living cells bring about.

The test system of the next data set is p-IκBα. Nature of the data set: Western blot of IκBα phosphorylation after TNF-α. The format is cell-based. The conditions noted are these: 10 ng/ml TNF-α, 0, 5 and 10 min; 100 μM compound. Here is the method: (§1) To confirm that the NBD mimetics reduce IKK activity, the extent of phosphorylation of the IKK target, IκBα, in response to 10 ng/ml of TNF-α was determined by Western blot at 0, 5 and 10 min after TNF-α stimulation. […] To determine if the mimetics also reduce NF-κB DNA binding activity, electrophoretic mobility shift assay (EMSA) was conducted both in vivo and in vitro.
HEK293 cells grown in a 6-well plate at 1×10^6 cells/well were left untreated or treated with 100 μM of ZINC12909780 or ZINC3369392 for 30 min, followed by 10 ng/ml of TNFα for 0, 5 and 10 min. Cells were then harvested for western blot. Cell lysate was prepared in RIPA buffer (20 mM Tris-HCl (pH 7.5), 150 mM NaCl, 1 mM Na^2EDTA, 1 mM EGTA, 1% NP-40, 1% sodium deoxycholate, 2.5 mM sodium pyrophosphate, 1 mM beta-glycerophosphate, 1 mM Na3VO4, 1 μg/ml leupeptin, 1× protease inhibitor cocktails (sigma) and 1× Halt phosphatase inhibitor cocktail (Thermo)). 30 ug of protein was resolved by MINI-PROTEAN TGX 4-15% SDS-PAGE. Blots were blocked in 5% non-fat milk. Primary antibodies were incubated at 4° C. overnight and secondary antibodies were incubated at room temperature for 1 hour. Anti-p-IκBα (1:1000 CST) and anti-IκBα (1:2000 CST) were used to assess NF-κB activation. Anti-GAPDH (1:5000 CST) was used as a loading control.
Background: Immunoblotting shows a protein as a band on a membrane.

Data set [2] deals with NF-κB. In words: EMSA of NF-κB DNA binding in C2C12 cells. The format is cell-based, mouse. The conditions noted are these: 200 μM. Here is the method: as §1
(§2) Cytoplasmic and nuclear fractions were extracted using the NE-PER nuclear and cytoplasmic extraction reagents (ThermoFisher) according to the manufacturer's instructions. The gel shift assay was performed by following the previously described method (41). In brief, 5 μg of nuclear extract was incubated with gel shift binding buffer and an α-^32P-deoxycytodine triphosphate-radiolabeled NF-κB probe for 20 min at room temperature (MP Biomedicals). The oligonucleotide sequences are as follows: NF-κB template, 5′-[…]-3′; NF-κB annealing, 5′-[…]-3′. The reaction product was separated on a 6% non-denaturing polyacrylamide gel.

In data set [3] the test system is NF-κB. Nature of the data set: EMSA of NF-κB DNA binding in skeletal muscle of mdx mice after acute treatment. The format is in vivo, mouse. Particulars: single ip injection at 10 mg/kg, 1 and 2 hours post-treatment. The method, then: We also tested the compounds for their ability to inhibit NF-κB activity acutely in a murine model of disease. For these experiments, a mouse model of Duchenne muscular dystrophy, which has elevated NF-κB activity in muscle, was treated with Zinc-13 (NBDA-1) and Zinc-5 (NBDA-2) and the level of NF-κB activity determined by gel shift analysis at 1 and 2 hours post-treatment.
as §1, §2

The target in data set [4] is T1, IKK complex (IKKß, IKKα and NEMO) (Homo sapiens, UniProt Q9Y6K9).
T1 construct: analyzed by Western blot for the level of co-precipitated NEMO; endogenous in cells; host or cells: 293 (HEK293) cells
In words: Co-immunoprecipitation of NEMO with IKKß in 293 cells. Type of data set: cell-based. Particulars: Zinc-5 at 4 hours, Zinc-13 at 1 hour, NBD peptide at 4 hours. The text has this: FIG. 8 is a bar graph showing the inhibition of TNFα by NBDA-1 (Zinc-13). […] In addition, we have examined the ability of the compounds to disrupt the IKK complex, comprised of IKKß, IKKα and NEMO.
A non-functional, related compound Zinc-7 had no effect.

The test system of another data set is mdx mice. Nature of the data set: Chronic treatment of mdx mice (Duchenne muscular dystrophy model). The format is in vivo, mouse. Particulars: chronic treatment with the ZINC compounds. The text has this:
Mdx mice develop normally at birth, and then undergo a massive myonecrosis starting at three weeks. Treatment of mdx mice with IKK/NF-kB inhibitors effectively reduces inflammation, block necrosis and increase muscle regeneration. Mdx mice were chronically treated with vehicle, SR12343, SR12460 or 8K-NBD starting from day 21, 3 times/week for 4 weeks. […] To determine if SR12343 and SR12460 improve muscle pathology, tibialis anterior (TA) muscle was stained with hematoxylin and eosin (H&E) to assess inflammatory infiltration, necrosis, central nucleation and fibrosis. […] Fiber size in centrally nucleated and non-centrally nucleated myofibers was also smaller in mice treated with SR12343 and 8K-NBD, indicating active reconstruction of myofiber during the regenerative phase.
To determine muscle strength post-treatment, grip strength test on forelimbs was performed 2 weeks and 4 weeks post-treatment.
HEK293 cells were grown in Dulbecco's Modification of Eagles Medium (with 4.5 g/L glucose and L-glutamine), supplemented with 10% fetal bovine serum, penicillin and streptomycin. Raw264.7 cells were cultured in RPMI-1640 media containing 10% heat-inactivated fetal bovine serum, penicillin and streptomycin. C57BL/10ScSn-Dmd^mdx/J and female C57BL/6 mice were purchased from the Jackson Laboratory. Mice were housed in the animal facilities of Scripps Fla. under constant temperature and humidity. Animal protocols used in this study were approved by Scripps Fla. Institutional Animal Care and Use Committees. Three week-old sex-matched mdx mice were dosed with SR12343 (30 mg/kg), […] (30 mg/kg), 8K-NBD peptide (10 mg/kg) or vehicle by intraperitoneal (i.p.) injection 3 times per week for 4 weeks. Mice were sacrificed at 7 weeks of age by carbon dioxide inhalation and tibialis anterior was collected for histological analysis.
Seven week-old treated or untreated mdx mice were measured for forelimb grip strength using a digital grip strength meter paired with a metal grid (Bioseb). Mice were allowed to grip the metal grid tightly and readings were obtained by gently pulling the tail backward until release. Five sequential measurements were performed and the average force was calculated.
Tissues fixed in 10% neutral buffered formalin (NBF) overnight were imbedded in paraffin. Tissue was sectioned at […] using a microtome. H&E staining was conducted following a standard protocol (REF).

The nature of data set [5]: Degradation in the presence of serum. Type of data set: in vitro ADME. Particulars: data not shown.

T1 sequence (Q9Y6K9 whole entry, one chain of several): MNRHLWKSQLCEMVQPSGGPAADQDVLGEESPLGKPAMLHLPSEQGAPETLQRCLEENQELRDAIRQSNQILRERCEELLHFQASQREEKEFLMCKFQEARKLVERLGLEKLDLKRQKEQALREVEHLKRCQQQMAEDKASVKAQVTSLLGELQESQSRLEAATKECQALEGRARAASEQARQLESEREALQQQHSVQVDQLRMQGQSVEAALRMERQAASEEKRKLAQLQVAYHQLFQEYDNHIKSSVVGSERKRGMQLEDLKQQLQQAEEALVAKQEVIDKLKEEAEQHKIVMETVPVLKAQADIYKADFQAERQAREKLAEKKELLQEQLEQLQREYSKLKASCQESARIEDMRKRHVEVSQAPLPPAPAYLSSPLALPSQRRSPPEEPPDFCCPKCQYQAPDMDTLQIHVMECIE

On to `O=C(COC(=O)Cc1ccccc1F)Nc1ccc(Cl)cn1` [ZINC5, 2-(2-fluorophenyl)acetic-acid-[2-[(5-chloro-2-pyridyl)amino]-2-keto-ethyl]-ester], for which the “dose-dependent inhibition of TNF-α-induced NF-κB activation, in words” value in the data set on NF-κB [1] (0, 6.25, 25, 50 and 100 μM) is reported as “greater extent of inhibitory effect compared to compound 12909780”. Moreover, the “inhibition of TNF-α-induced NF-κB activation (luciferase reporter), in words” value in the data set with NF-κB [1] (listed as Zinc5) is listed as “lowered NF-κB activity robustly”; with NF-κB [1] (listed as Zinc-5), “able to inhibit TNF-alpha mediated activation of NF-κB, as or more efficiently as the NBD peptide”. Further, in the data set with HEK293 cells (HEK293, 24 hours), the “cell death / toxicity (MTT assay)” value is “less than 10%”. In addition, the “cell toxicity, in words” value in the data set with HEK293 cells (at 50 and 100 μM) was “no cell toxicity observed”. For the same molecule, the “level of phospho-IκBα / phosphorylation of IkB” value in the data set on p-IκBα is given as “reduced the level of p-IκBα dramatically”. Besides, the “TNFα-induced NF-κB DNA binding activity (EMSA)” value with NF-κB [2] is reported as “significantly decreased TNFα-induced NF-κB DNA binding activity”. For the same molecule, the “NF-κB DNA binding activity in quadriceps of mdx mice” value with NF-κB [3] (10 mg/kg) was “inhibited NF-κB DNA binding activity in quadriceps”; in the data set on NF-κB [3] (listed as Zinc-5, 10 mg/kg) it was “reduced NF-κB DNA binding activity in the skeletal muscle (quadricep)”. The “level of NEMO co-immunoprecipitated with IKKß” value in data set [4] was “reduced the level of co-immunoprecipitated NEMO”. Also, the “therapeutic benefit of chronic treatment of mdx mice” value in the data set with mdx mice is on record as “showed no therapeutic benefit”. The “degradation in the presence of serum” value in data set [5] is on record as “rapid degradation in the presence of serum”.
